Laboratory results published in US20170334927A1 (Shanghai Sun-sail Pharmaceutical Science & Technology Co., …, priority 2014, published 2017).
Converted amounts (≈) assume the structure as drawn. Where a name gives a salt, the structure may show the parent alone.

How the values were obtained:
[1] = physchem; type: physicochemical; details: for solubility at 3 days: pH 1.2, simulated gastric fluid, thermodynamic from solid
Method: 3-5 mg of compound to be tested was added to 0.5 mL of aqueous HCl solution (pH=1.2) and the mixture was shaken for three days on a shaker; the sample was centrifuged for 5 min at 10,000 rpm in a centrifuge; a volumetric flask (50 mL) was loaded with 2 mL of supernatant and water was added to a volume at the graduation mark to prepare a sample solution; and 2.6 mg of sample was precisely weighed into a volumetric flask (50 mL), an appropriate amount of methanol was added to dissolve the sample, and water was added to a volume at the graduation mark and shaken well to give a control sample solution. 20 μL of sample solution and control sample solution were each injected, and tested by liquid chromatography. The solubility was calculated as follows:
Solubility (mg/mL)=C (control)*25*A (sample)/A (control)
C (control): concentration of the control sample
A (sample): peak area of the liquid chromatogram of the sample solution
A (control): peak area of the liquid chromatogram of the control sample solution

[2] = test system: Mycobacterium tuberculosis H37Rv; assay: Activity test for Mycobacterium tuberculosis (MIC, H37Rv); type: cell-based; details: for MIC: Mycobacterium tuberculosis H37Rv, liquid medium, 37° C., read-out: Minimum inhibitory concentration against H37Rv
Method: The tested strain H37Rv was transferred to liquid medium and cultured for 2 weeks at 37° C.; a small amount of the cultured bacterial solution was pipetted and placed in 4 mL of liquid medium; 10-20 sterile glass beads with a diameter of 2-3 mm were added; the mixture was shaken for 20-30 s and left to sediment for 10-20 min; the supernatant of the bacterial suspension was pipetted and adjusted to a turbidity of 1 MCF (equivalent to 1×10^7 CFU/mL) with the liquid medium for use. Each drug was dissolved to 1 mg/mL with an appropriate amount of DMSO and filtered with a 0.22 μm filter. Then, the solution was diluted to a desired experimental concentration with the liquid medium. The final concentrations of the tested drugs were set as follows: 0.001 μg/mL, 0.002 μg/mL, 0.0039 μg/mL, 0.0078 μg/mL, […], 0.03125 μg/mL, 0.0625 μg/mL, 0.125 μg/mL, 0.25 μg/mL, 0.5 μg/mL and 1 μg/mL, a total of 11 concentration gradients. 100 μL of each of the above-mentioned drug solutions was added to a 96-well microwell plate, then 100 μL bacterial solution with a concentration of 1 mg/mL was added to allow the drug concentration to reach the final set concentration, and cultured at 37° C. Three groups in parallel were set for each drug dilution with inoculation amounts of 100%, 10% and 1%, respectively, while no drug was added to the control group.

[3] = in vivo; cited from earlier work
[4] = molecular target: T1, hERG potassium channel (Homo sapiens, UniProt Q12809); assay: Inhibitory effect on hERG potassium ion channel (whole cell patch clamp, HEK-293 cells); type: cell-based; details: hERG potassium current, room temperature, read-out: IC50 (inhibition on hERG)
T1 construct: host or cells: HEK-293
T1 sequence (Q12809 whole entry): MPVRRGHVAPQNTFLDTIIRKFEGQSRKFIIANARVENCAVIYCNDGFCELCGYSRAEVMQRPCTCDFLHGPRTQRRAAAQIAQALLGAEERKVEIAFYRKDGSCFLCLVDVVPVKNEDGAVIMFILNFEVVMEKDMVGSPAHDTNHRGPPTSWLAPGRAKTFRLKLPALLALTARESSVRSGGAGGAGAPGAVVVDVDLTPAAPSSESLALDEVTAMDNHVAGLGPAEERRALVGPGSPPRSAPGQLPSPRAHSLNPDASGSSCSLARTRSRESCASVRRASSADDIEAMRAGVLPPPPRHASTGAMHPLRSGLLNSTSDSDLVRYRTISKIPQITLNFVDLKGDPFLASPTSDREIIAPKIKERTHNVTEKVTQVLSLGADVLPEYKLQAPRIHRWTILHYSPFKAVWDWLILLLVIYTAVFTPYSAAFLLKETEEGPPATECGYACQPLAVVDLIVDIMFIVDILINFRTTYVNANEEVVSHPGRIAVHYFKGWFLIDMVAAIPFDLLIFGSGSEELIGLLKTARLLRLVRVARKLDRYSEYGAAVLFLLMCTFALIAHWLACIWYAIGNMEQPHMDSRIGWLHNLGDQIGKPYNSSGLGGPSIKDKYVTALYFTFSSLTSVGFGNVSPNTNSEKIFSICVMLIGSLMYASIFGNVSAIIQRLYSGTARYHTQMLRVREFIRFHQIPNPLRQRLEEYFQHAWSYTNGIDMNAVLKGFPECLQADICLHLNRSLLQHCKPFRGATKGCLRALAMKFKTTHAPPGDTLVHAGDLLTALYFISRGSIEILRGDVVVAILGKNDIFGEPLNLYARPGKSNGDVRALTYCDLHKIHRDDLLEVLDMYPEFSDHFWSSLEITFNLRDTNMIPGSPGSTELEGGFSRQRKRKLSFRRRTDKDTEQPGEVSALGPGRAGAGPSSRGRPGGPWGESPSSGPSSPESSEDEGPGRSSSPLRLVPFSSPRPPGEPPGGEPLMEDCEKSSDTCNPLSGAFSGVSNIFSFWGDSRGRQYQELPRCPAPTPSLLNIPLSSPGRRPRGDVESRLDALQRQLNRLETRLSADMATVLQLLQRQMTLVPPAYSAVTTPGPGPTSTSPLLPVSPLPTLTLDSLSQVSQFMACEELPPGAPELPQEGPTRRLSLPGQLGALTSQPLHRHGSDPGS
Method: hERG potassium channel currents were recorded with the whole cell patch clamp technique at room temperature in HEK-293 cells (Creacell™, France) expressing hERG stably. A glass microelectrode with a tip resistance of about 1-4 MΩ was connected to the Axon 200A patch clamp amplifier. Clamp voltage and data record were controlled by a computer via the Axon DigiData 1322A A/D converter with the clampex 9.2 software; the cells were clamped at −80 mV; and the step voltage for inducing the hERG potassium current (IhERG) was changed from −80 mV to +20 mV by providing a 2 s depolarization voltage, repolarized to −40 mV and returned to −80 mV after 4 s. This voltage step was given respectively before and after administration to induce the hERG potassium current.
Data analysis and processing were performed with the PatchMaster, GraphPad Prism 5 and Excel softwares. The degree of inhibition of different compound concentrations on the hERG potassium current (hERG tail current peak induced at −50 mV) was calculated using the following formula:
Fractional block %=[1−(I/Io)]×100%
in the formula, Fractional block represents the percent inhibition of a compound on the hERG potassium current, and I and Io represent the magnitudes of the hERG potassium current […], respectively.
The IC50 of a compound was calculated using the following equation by fitting: […]
in the equation, I and Io represent the magnitudes of the hERG potassium current […], respectively; [C] is the compound concentration, and n is the Hill coefficient.

[5] = Drug metabolism test (pharmacokinetics, oral, mice); type: in vivo, ICR mice; details: male, ICR, mouse, po, orally (intragastric), 10 mg/kg, plasma
Method: 18 healthy male ICR mice with a body weight of 18-22 g were administered drugs by intragastric administration, with an administration dose of 10 mg/kg and an administration volume of 10 mL/kg, respectively. These mice were fasted for 12 h before the test and had free access to drinking water. These mice were fed 2 h after administration uniformly. 0.3 mL of blood was taken from the postocular venous plexus of a mouse at the set time points, placed in a heparinized test tube and centrifuged for 10 min at 3000 rpm; and plasma was separated and frozen in a refrigerator at −20° C. When measured, the sample was treated through the method for treating the plasma sample, and the drug concentration in plasma was determined by LC-MS/MS and the pharmacokinetic parameters of the drug were calculated.

Question: With `CN(Cc1cnc(N2CCN(c3ccc(OC(F)(F)F)cc3)CC2)nc1)[C@@H]1COc2nc([N+](=O)[O-])cn2C1.O=C(O)/C=C/C(=O)O` as the compound, how does the melting point read?
Answer: Its melting point is 143 to 145 °C.

Question: For `O=[N+]([O-])c1cn2c(n1)OC[C@@H](OCc1ccc(OC(F)(F)F)cc1)C2` [PA-824, reference compound], which solubility at 3 days [1] is on record?
Answer: Its solubility at 3 days is 17 µg/mL (≈ 47.3 µM).

Question: And the MIC [2]?
Answer: Its MIC is 0.0625 µg/mL (≈ 0.174 µM).

Question: What about the “oral bioavailability (in words, background)” value [3] of the same compound?
Answer: The value was “low”.

Question: Which “oral bioavailability (in words, background)” value [3] does the source give for `C[C@]1(COc2ccc(N3CCC(Oc4ccc(OC(F)(F)F)cc4)CC3)cc2)Cn2cc([N+](=O)[O-])nc2O1` [OPC-67683] here?
Answer: The value was “very low”.

Question: With `Cc1nc(N2CCN(c3ccc(OC(F)(F)F)cc3)CC2)ncc1CN[C@@H]1COc2nc([N+](=O)[O-])cn2C1` (as salt: methanesulfonate) [Compound 49, (S)-N-((4-methyl-2-(4-(4-(trifluoromethoxy)phenyl)piperazin-1-yl)pyrimidin-5-yl)methyl)-2-nitro-6,7-dihydro-5H-imidazo[2,1-b][1,3]oxazin-6-amine methanesulfonate] as the compound, how does the melting point read?
Answer: The melting point was 175 to 177 °C.

Question: Which Solubility ([1]; 3 days, pH 1.2) does the source give for `CC1CN(c2ncc(CN[C@@H]3COc4nc([N+](=O)[O-])cn4C3)cn2)CCN1c1ccc(OC(F)(F)F)cc1` (stereo partly drawn) [Compound 19] here?
Answer: Its Solubility is 1321.8 µg/mL (≈ 2470 µM).

Question: What about the solubility at 3 days [1] of the same compound?
Answer: The solubility at 3 days was greater than 1000 µg/mL.

Question: And the “anti Mycobacterium tuberculosis activity (MIC against H37Rv), times of that of PA-824” value ([2]; H37Rv, relative to PA-824)?
Answer: Its value is 8 times.

Question: What about the “anti Mycobacterium tuberculosis activity (MIC against H37Rv), times of that of ethambutol” value ([2]; H37Rv, relative to ethambutol) of the same compound?
Answer: Its value is 64 times.

Question: And the MIC [2]?
Answer: Its MIC is 0.0078 µg/mL (≈ 0.0146 µM).

Question: What about the IC50 [4] of the same compound?
Answer: The IC50 was 38.3 µM.

Question: What about the AUC(0-inf) [5] of the same compound?
Answer: Its AUC(0-inf) is 16800 ng·h/mL.

Question: What about the AUC(0-t) [5] of the same compound?
Answer: Its AUC(0-t) is 16300 ng·h/mL.

Question: What about the Cmax [5] of the same compound?
Answer: The Cmax was 1780 ng/mL.

Question: And the MRT [5]?
Answer: Its MRT is 5.02 h.

Question: What about the Tmax [5] of the same compound?
Answer: Its Tmax is 1.98 h.

Question: What about the half-life [5] of the same compound?
Answer: Its half-life is 3.17 h.
